“And” between values parts separate entries of the source, which are not always exact repeats. Equal values may be shown once. Inconclusive results and toxic doses are left out.
System: P388 leukemia ip, CD2F1 mice, survival T/C
Assay: NCI In Vivo Anticancer Drug Screen. Data for tumor model P388 Leukemia (intraperitoneal) in CD2F1 (CDF1) mice
Settings: endpoint: median survival time, higher = longer survival
How it was run: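 Mice carrying the transplanted tumor received test compound or vehicle. Survival was recorded in each group, and the value is the treated-group measurement divided by that of the vehicle-treated control group.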

[1] = dose: 12.5 mg/kg/injection, schedule: Q01DX009 (ip), vehicle: saline with Tween-80
[2] = dose: 25.0 mg/kg/injection, schedule: Q01DX009 (ip), vehicle: saline with Tween-80
[3] = dose: 50.0 mg/kg/injection, schedule: Q01DX009 (ip), vehicle: saline with Tween-80
[4] = dose: 100.0 mg/kg/injection, schedule: Q01DX009 (ip), vehicle: saline with Tween-80
[5] = dose: 12.5 mg/kg/injection, schedule: Q01DX009 (ip), vehicle: water
[6] = dose: 50.0 mg/kg/injection, schedule: Q01DX009 (ip), vehicle: saline
[7] = dose: 100.0 mg/kg/injection, schedule: Q01DX009 (ip), vehicle: saline
[8] = dose: 25.0 mg/kg/injection, schedule: Q01DX009 (ip), vehicle: Klucel (hydroxypropylcellulose) (HPC)
[9] = dose: 50.0 mg/kg/injection, schedule: Q01DX009 (ip), vehicle: Klucel (hydroxypropylcellulose) (HPC)
[10] = dose: 100.0 mg/kg/injection, schedule: Q01DX009 (ip), vehicle: Klucel (hydroxypropylcellulose) (HPC)
[11] = dose: 200.0 mg/kg/injection, schedule: Q01DX009 (ip), vehicle: Klucel (hydroxypropylcellulose) (HPC)
[12] = dose: 200.0 mg/kg/injection, schedule: Q01DX009 (ip), vehicle: saline

Nc1c(C(=O)O)ccc2c1C(=O)c1ccccc1C2=O
T/C (dose: 6.25 mg/kg/injection, schedule: Q01DX005 (ip), vehicle: saline with Tween-80): 96 % of control | T/C (dose: 12.5 mg/kg/injection, schedule: Q01DX005 (ip), vehicle: saline with Tween-80): 96 % of control | T/C (dose: 25.0 mg/kg/injection, schedule: Q01DX005 (ip), vehicle: saline with Tween-80): 98 % of control | T/C (dose: 50.0 mg/kg/injection, schedule: Q01DX005 (ip), vehicle: saline with Tween-80): 103 % of control

CCCCCCCCCCCCCCCCSc1ccncc1NN=O
T/C (dose: 3.12 mg/kg/injection, schedule: Q01DX009 (ip), vehicle: saline with Tween-80): 99 % of control | T/C (dose: 6.25 mg/kg/injection, schedule: Q01DX009 (ip), vehicle: saline with Tween-80): 106 % of control | T/C [1]: 101 % of control | T/C [2]: 105 % of control | T/C [3]: 99 % of control and 100 % of control | T/C [4]: 113 % of control

C[C@@H]1C(=O)O[C@H]2[C@H]1CC[C@@]1(C)C[C@@H](I)C(=O)[C@@H](C)[C@H]21
T/C (dose: 60.0 mg/kg/injection, schedule: Q01DX005 (ip), vehicle: Klucel (hydroxypropylcellulose) (HPC)): 92 % of control | T/C (dose: 120.0 mg/kg/injection, schedule: Q01DX005 (ip), vehicle: Klucel (hydroxypropylcellulose) (HPC)): 108 % of control

COC(OC)/C(C)=N/NC1=Nc2ccc(Cl)cc2C(c2ccccc2Cl)=NC1
T/C [3]: 98 % of control | T/C [4]: 95 % of control | T/C (dose: 200.0 mg/kg/injection, schedule: Q01DX009 (ip), vehicle: saline with Tween-80): 101 % of control

COc1cc2cc3c4cc(OC)c(OC)cc4cc[n+]3c(C)c2cc1OC (tested in a mixture with another compound)
T/C [5]: 154 % of control | T/C (dose: 16.0 mg/kg/injection, schedule: Q01DX009 (ip), vehicle: water): 106 % of control | T/C (dose: 16.0 mg/kg/injection, schedule: Q01DX009 (sc), vehicle: water): 108 % of control | T/C (dose: 25.0 mg/kg/injection, schedule: Q01DX009 (ip), vehicle: water): 158 % of control and 163 % of control and 172 % of control | T/C (dose: 25.9 mg/kg/injection, schedule: Q04DX003 (ip), vehicle: water): 118 % of control | T/C (dose: 32.0 mg/kg/injection, schedule: Q01DX009 (ip), vehicle: water): 105 % of control | T/C (dose: 32.0 mg/kg/injection, schedule: Q01DX009 (sc), vehicle: water): 118 % of control | T/C (dose: 43.2 mg/kg/injection, schedule: Q04DX003 (ip), vehicle: water): 123 % of control | T/C [6]: 191 % of control | T/C (dose: 50.0 mg/kg/injection, schedule: Q01DX009 (ip), vehicle: water): 200 % of control | T/C (dose: 50.0 mg/kg/injection, schedule: Q04DX003 (ip), vehicle: water): 152 % of control and 171 % of control | T/C (dose: 64.0 mg/kg/injection, schedule: Q01DX009 (sc), vehicle: water): 123 % of control | T/C [7]: 90 % of control | T/C (dose: 100.0 mg/kg/injection, schedule: Q01DX009 (ip), vehicle: water): 200 % of control | T/C (dose: 100.0 mg/kg/injection, schedule: Q04DX003 (ip), vehicle: saline): 150 % of control | T/C (dose: 100.0 mg/kg/injection, schedule: Q04DX003 (ip), vehicle: water): 158 % of control and 162 % of control and 187 % of control | T/C (dose: 128.0 mg/kg/injection, schedule: Q01DX009 (ip), vehicle: water): 118 % of control | T/C (dose: 128.0 mg/kg/injection, schedule: Q01DX009 (sc), vehicle: water): 115 % of control | T/C (dose: 200.0 mg/kg/injection, schedule: Q04DX003 (ip), vehicle: saline with Tween-80): 183 % of control | T/C (dose: 200.0 mg/kg/injection, schedule: Q04DX003 (ip), vehicle: saline): 184 % of control | T/C (dose: 256.0 mg/kg/injection, schedule: Q01DX009 (ip), vehicle: water): 105 % of control | T/C (dose: 512.0 mg/kg/injection, schedule: Q01DX009 (ip), vehicle: water): 89 % of control

Nc1ccccc1-c1nc2ccncc2[nH]1
T/C [8]: 102 % of control | T/C [9]: 105 % of control | T/C [10]: 101 % of control | T/C [11]: 100 % of control

COc1ccc2c(c1CCl)C(=O)OC2
T/C [1]: 96 % of control | T/C [2]: 111 % of control | T/C [3]: 101 % of control and 89 % of control

CCOC(=O)c1cn[nH]c1N
T/C [8]: 108 % of control | T/C [9]: 93 % of control

Nc1nc2ncc(CCNc3ccc(C(=O)NC(CCC(=O)O)C(=O)O)cc3)nc2c(=O)[nH]1 (stereo not given)
T/C (dose: 12.5 mg/kg/injection, schedule: Q01DX009 (ip), vehicle: Klucel (hydroxypropylcellulose) (HPC)): 98 % of control | T/C [8]: 103 % of control | T/C [9]: 107 % of control | T/C [10]: 93 % of control

N#C/C(=C\c1ccccn1)c1nc(-c2ccc(Cl)cc2)cs1
T/C [6]: 102 % of control | T/C [7]: 92 % of control | T/C [12]: 92 % of control

CCCCCCCCCc1ccc(OC(=O)CCC)cc1
T/C [10]: 102 % of control | T/C [11]: 97 % of control | T/C (dose: 400.0 mg/kg/injection, schedule: Q01DX009 (ip), vehicle: Klucel (hydroxypropylcellulose) (HPC)): 99 % of control

CSc1nc(C(N)=O)c(N)c(=O)[nH]1
T/C [9]: 109 % of control | T/C [10]: 110 % of control | T/C [11]: 117 % of control

Cc1ccc(C(=O)N/N=C/c2cccc(C(N)=S)c2)cc1
T/C (dose: 100.0 mg/kg/injection, schedule: Q01DX001 (ip), vehicle: saline): 88 % of control | T/C (dose: 200.0 mg/kg/injection, schedule: Q01DX001 (ip), vehicle: saline): 87 % of control | T/C (dose: 400.0 mg/kg/injection, schedule: Q01DX001 (ip), vehicle: saline): 86 % of control

COc1cccc2c1C(=O)c1c(O)c3c(c(O)c1C2=O)C[C@@](O)(C(=O)COS(=O)(=O)c1ccc(C)cc1)C[C@@H]3OC1CC(N)C(O)C(C)O1 (stereo not given in full)
T/C (dose: 0.78 mg/kg/injection, schedule: Q01DX009 (ip), vehicle: water): 164 % of control | T/C (dose: 1.56 mg/kg/injection, schedule: Q01DX009 (ip), vehicle: water): 161 % of control | T/C (dose: 3.13 mg/kg/injection, schedule: Q01DX009 (ip), vehicle: water): 158 % of control and 161 % of control | T/C (dose: 6.25 mg/kg/injection, schedule: Q01DX009 (ip), vehicle: water): 155 % of control and 180 % of control | T/C [5]: 89 % of control

O=C(O)CC1(C(=O)O)CCC(O)CC1 (stereo not given)
T/C [6]: 100 % of control | T/C [7]: 107 % of control | T/C [12]: 100 % of control

Reference: PubChem BioAssay AID330 (DTP/NCI, 2004)
